Experimental data: publication PMC4893628, “Chalcone-based Selective Inhibitors of a C4 Plant Key Enzyme as Novel Potential Herbicides” (Scientific Reports, 2016)
Read-outs that look alike come from different tables or passages of the source.

Assays:
F. trinervia PEPC = target: T1, F. trinervia PEPC (Flaveria trinervia, UniProt P30694); experiment: biochemical; format: biochemical; conditions: for Selectivity C4/C3: C4 PEPC over C3 isoform
T1 construct: the full-length ppcA gene of PEPC from F. trinervia (EMBL-Bank X61304); made in house; host or cells: Escherichia coli BL21(DE3)
T1 sequence (P30694 1-966): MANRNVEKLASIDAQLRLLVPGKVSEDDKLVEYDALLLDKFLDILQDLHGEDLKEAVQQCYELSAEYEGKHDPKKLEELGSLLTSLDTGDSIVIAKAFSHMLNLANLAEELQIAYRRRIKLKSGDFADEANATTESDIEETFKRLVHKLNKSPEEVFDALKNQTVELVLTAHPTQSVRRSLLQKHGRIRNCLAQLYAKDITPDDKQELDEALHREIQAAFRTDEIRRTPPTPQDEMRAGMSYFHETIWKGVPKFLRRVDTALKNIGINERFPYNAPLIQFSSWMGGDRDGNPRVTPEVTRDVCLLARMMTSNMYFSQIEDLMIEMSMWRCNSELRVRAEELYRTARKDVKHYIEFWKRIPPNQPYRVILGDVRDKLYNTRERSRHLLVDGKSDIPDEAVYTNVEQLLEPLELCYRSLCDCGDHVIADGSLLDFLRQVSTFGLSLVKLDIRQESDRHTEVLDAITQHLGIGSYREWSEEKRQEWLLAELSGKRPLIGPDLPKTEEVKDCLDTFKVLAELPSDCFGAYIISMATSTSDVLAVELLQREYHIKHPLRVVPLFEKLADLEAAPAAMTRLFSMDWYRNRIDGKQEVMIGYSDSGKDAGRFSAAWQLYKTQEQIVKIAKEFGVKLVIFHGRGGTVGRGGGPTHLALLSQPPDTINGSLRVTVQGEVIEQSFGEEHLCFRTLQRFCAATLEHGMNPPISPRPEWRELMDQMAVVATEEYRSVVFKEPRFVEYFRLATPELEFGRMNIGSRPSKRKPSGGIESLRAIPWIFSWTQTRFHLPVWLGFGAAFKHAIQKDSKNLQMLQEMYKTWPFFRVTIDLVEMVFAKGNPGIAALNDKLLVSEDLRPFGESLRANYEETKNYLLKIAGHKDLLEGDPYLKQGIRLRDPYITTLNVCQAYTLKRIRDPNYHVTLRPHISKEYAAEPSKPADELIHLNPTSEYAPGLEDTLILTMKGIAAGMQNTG
Description: The IC50 values of small molecule compounds on F. pringlei and F. trinervia PEPCs were determined using PEPC coupled spectrophotometric assay. The amount of NADH oxidized by NADH-malate dehydrogenase was measured by the decrease in absorbance at 340 nm in a Beckman DU-800 spectrophotometer, thus the value is in proportion to the corresponding substrate conversion of the enzyme. […] The reactions were started by adding two folds of the Km value of PEP for each enzyme. The data were analyzed using GraFit (Erithacus Software, UK).

[1] = system: Corynebacterium glutamicum ATCC13032; experiment: Bacterial growth in microscale cultivation, C. glutamicum; format: cell-based; conditions: for activity at 0.4 µM / activity at 4 µM / activity at 40 µM / activity at 120 µM / activity at 400 µM / activity at 0.1 µM / activity at 1 µM / activity at 10 µM / activity at 0.3 µM / activity at 3 µM / activity at 30 µM: Corynebacterium glutamicum; for activity at 0.4 µM / activity at 4 µM / activity at 40 µM / Lag Phase / activity at 120 µM / activity at 400 µM / activity at 0.1 µM / activity at 1 µM / activity at 10 µM: relative to control
Description: The following bacteria were cultivated in the presence of trans-chalcone derived inhibitors: Corynebacterium glutamicum ATCC13032[43], Escherichia coli K-12 MG1655[44], Pseudomonas putida KT2440[45], and Bacillus subtilis 168[46]. The growth of these bacteria was monitored in flower-well plates shaken at 1200 rpm as backscatter at 620 nm (gain 20) using a BioLector® microscale cultivation system (m2p labs, Baesweiler, Germany). For further experimental details please refer to the Supplementary Information.
medium or the appropriate minimal medium and shaken at 140 rpm overnight. For inoculation of
the main culture, cells equivalent to an optical density at 600 nm of 0.5 (C. glutamicum, E. coli,
and P. putida) or 0.25 (B. subtilis) in 800 µL medium were washed and resuspended in fresh
media. Inhibitor substances were dissolved in DMSO and added to the media to a final
Since the least polar trans-chalcone and 2’-hydroxychalcone precipitated in the growth media at
the highest concentrations, the maximal concentration of these compounds was reduced to 400
µM and 100 µM, respectively. The final backscatter at 620 nm, the growth rate (h-1), and the
duration of the lag phase of all cultures were determined in a BioLector microscale cultivation
system in comparison to negative controls supplemented with the solvent DMSO. A longer lag

[2] = C4 PEPC, read-out: IC50 F. trinervia PEPC
[3] = ATCC13032, complex medium, 4 µM, read-out: Final Backscatter
[4] = ATCC13032, complex medium, 4 µM, read-out: Growth rate
[5] = ATCC13032, complex medium, 40 µM, read-out: Final Backscatter
[6] = ATCC13032, complex medium, 40 µM, read-out: Growth rate
[7] = ATCC13032, minimal medium, 4 µM, read-out: Final Backscatter
[8] = ATCC13032, minimal medium, 4 µM, read-out: Growth rate
[9] = ATCC13032, minimal medium, 40 µM, read-out: Final Backscatter
[10] = ATCC13032, minimal medium, 40 µM, read-out: Growth rate
[11] = IC50 F. trinervia PEPC, C4 PEPC

O=C(/C=C/c1ccc(O)c(O)c1)c1ccc(O)cc1O [Compound 8, 2′,4′,3,4-Tetrahydroxy-chalcone]
Selectivity C4/C3 (F. trinervia PEPC): 29 fold
IC50 (F. trinervia PEPC; [2]): 2.2 ± 0.2 µM
activity at 0.4 µM ([1]; ATCC13032, complex medium, 0.4 µM, read-out: Final Backscatter): 96.6%
activity at 0.4 µM ([1]; ATCC13032, complex medium, 0.4 µM, read-out: Growth rate): 114%
activity at 4 µM [1, 3]: 107%
activity at 4 µM [1, 4]: 134%
activity at 40 µM [1, 5]: 108%
activity at 40 µM [1, 6]: 129%
activity at 0.4 µM ([1]; ATCC13032, minimal medium, 0.4 µM, read-out: Final Backscatter): 99%
activity at 0.4 µM ([1]; ATCC13032, minimal medium, 0.4 µM, read-out: Growth rate): 103%
activity at 4 µM [1, 7]: 101%
activity at 4 µM [1, 8]: 96.6%
activity at 40 µM [1, 9]: 103%
activity at 40 µM [1, 10]: 102%
Lag Phase ([1]; complex medium, 0.4 µM): 109,9%
Lag Phase ([1]; complex medium, 4 µM): 95,4%
Lag Phase ([1]; complex medium, 40 µM): 84,9%
Lag Phase ([1]; minimal medium, 0.4 µM): 99,3%
Lag Phase ([1]; minimal medium, 4 µM): 98,6%
Lag Phase ([1]; minimal medium, 40 µM): 100,7%

O=C(/C=C/c1ccc(O)cc1)c1ccccc1O [Compound 3, 2′,4-Dihydroxychalcone]
Selectivity C4/C3 (F. trinervia PEPC): 1.6 fold
IC50 (F. trinervia PEPC; [2]): 39.8 ± 4.2 µM
activity at 4 µM [1, 3]: 100%
activity at 4 µM [1, 4]: 101%
activity at 40 µM [1, 5]: 103%
activity at 40 µM [1, 6]: 99.1%
activity at 120 µM ([1]; ATCC13032, complex medium, 120 µM, read-out: Final Backscatter): 111%
activity at 120 µM ([1]; ATCC13032, complex medium, 120 µM, read-out: Growth rate): 107%
activity at 400 µM ([1]; ATCC13032, complex medium, 400 µM, read-out: Final Backscatter): 112%
activity at 400 µM ([1]; ATCC13032, complex medium, 400 µM, read-out: Growth rate): 93.9%
activity at 4 µM [1, 7]: 102%
activity at 4 µM [1, 8]: 99.6%
activity at 40 µM [1, 9]: 103%
activity at 40 µM [1, 10]: 99.5%
activity at 120 µM ([1]; ATCC13032, minimal medium, 120 µM, read-out: Final Backscatter): 102%
activity at 120 µM ([1]; ATCC13032, minimal medium, 120 µM, read-out: Growth rate): 96.7%
activity at 400 µM ([1]; ATCC13032, minimal medium, 400 µM, read-out: Final Backscatter): 106%
activity at 400 µM ([1]; ATCC13032, minimal medium, 400 µM, read-out: Growth rate): 81.2%
Lag Phase ([1]; complex medium, 4 µM): 93,2%
Lag Phase ([1]; complex medium, 40 µM): 93,8%
Lag Phase ([1]; complex medium, 120 µM): 100,5%
Lag Phase ([1]; complex medium, 400 µM): 118,1%
Lag Phase ([1]; minimal medium, 4 µM): 100,0%
Lag Phase ([1]; minimal medium, 40 µM): 97,3%
Lag Phase ([1]; minimal medium, 120 µM): 107,7%
Lag Phase ([1]; minimal medium, 400 µM): 139,3%

O=C(/C=C/c1ccc(O)c(O)c1)c1ccc(O)c(O)c1O [Compound 12, 2′,3′,4′,3,4-Pentahydroxy-chalcone]
lower IC50 value in comparison to 8–11 (F. trinervia PEPC; C4 PEPC): ~ 5 fold
IC50 (F. trinervia PEPC; [11]): 0.6 ± 0.1 µM
activity at 0.1 µM ([1]; ATCC13032, complex medium, 0.1 µM, read-out: Final Backscatter): 97%
activity at 0.1 µM ([1]; ATCC13032, complex medium, 0.1 µM, read-out: Growth rate): 108%
activity at 1 µM ([1]; ATCC13032, complex medium, 1 µM, read-out: Final Backscatter): 93.8%
activity at 1 µM ([1]; ATCC13032, complex medium, 1 µM, read-out: Growth rate): 132%
activity at 10 µM ([1]; ATCC13032, complex medium, 10 µM, read-out: Final Backscatter): 89.6%
activity at 10 µM ([1]; ATCC13032, complex medium, 10 µM, read-out: Growth rate): 144%
activity at 0.1 µM ([1]; ATCC13032, minimal medium, 0.1 µM, read-out: Final Backscatter): 99.6%
activity at 0.1 µM ([1]; ATCC13032, minimal medium, 0.1 µM, read-out: Growth rate): 102%
activity at 1 µM ([1]; ATCC13032, minimal medium, 1 µM, read-out: Final Backscatter): 97.6%
activity at 1 µM ([1]; ATCC13032, minimal medium, 1 µM, read-out: Growth rate): 102%
activity at 10 µM ([1]; ATCC13032, minimal medium, 10 µM, read-out: Final Backscatter): 96.7%
activity at 10 µM ([1]; ATCC13032, minimal medium, 10 µM, read-out: Growth rate): 97.9%
Lag Phase ([1]; complex medium, 0.1 µM): 96,4%
Lag Phase ([1]; complex medium, 1 µM): 84,1%
Lag Phase ([1]; complex medium, 10 µM): 99,3%
Lag Phase ([1]; minimal medium, 0.1 µM): 99,3%
Lag Phase ([1]; minimal medium, 1 µM): 99,3%
Lag Phase ([1]; minimal medium, 10 µM): 100,7%

O=C(/C=C/c1ccccc1)c1ccc(O)c(O)c1O [Compound 10, 2′,3′,4′-Trihydroxychalcone]
Selectivity C4/C3 (F. trinervia PEPC): 15 fold
Selectivity C4/C3 (F. trinervia PEPC; listed as 2′,3′,4′-Trihydroxychalcone): 15–45 fold
IC50 (F. trinervia PEPC; [11]): 4.2 ± 1.5 µM
activity at 0.3 µM ([1]; ATCC13032, read-out: Final Backscatter, complex medium, 0.3 µM, relative to control): 105%
activity at 3 µM ([1]; ATCC13032, read-out: Final Backscatter, complex medium, 3 µM, relative to control): 109%
activity at 30 µM ([1]; ATCC13032, read-out: Final Backscatter, complex medium, 30 µM, relative to control): 110%
activity at 0.3 µM ([1]; ATCC13032, read-out: Final Backscatter, minimal medium, 0.3 µM, relative to control): 103%
activity at 3 µM ([1]; ATCC13032, read-out: Final Backscatter, minimal medium, 3 µM, relative to control): 104%
activity at 30 µM ([1]; ATCC13032, read-out: Final Backscatter, minimal medium, 30 µM, relative to control): 104%
activity at 0.3 µM ([1]; ATCC13032, read-out: Growth rate, complex medium, 0.3 µM, relative to control): 106%
activity at 3 µM ([1]; ATCC13032, read-out: Growth rate, complex medium, 3 µM, relative to control): 112%
activity at 30 µM ([1]; ATCC13032, read-out: Growth rate, complex medium, 30 µM, relative to control): 118%
activity at 0.3 µM ([1]; ATCC13032, read-out: Growth rate, minimal medium, 0.3 µM, relative to control): 104%
activity at 3 µM ([1]; ATCC13032, read-out: Growth rate, minimal medium, 3 µM, relative to control): 103%
activity at 30 µM ([1]; ATCC13032, read-out: Growth rate, minimal medium, 30 µM, relative to control): 99.3%
Lag Phase ([1]; complex medium, 0.3 µM): 100,0%
Lag Phase ([1]; complex medium, 3 µM): 97,8%
Lag Phase ([1]; complex medium, 30 µM): 94,9%
Lag Phase ([1]; minimal medium, 0.3 µM): 97,9%
Lag Phase ([1]; minimal medium, 3 µM): 98,6%
Lag Phase ([1]; minimal medium, 30 µM): 102,1%
